# Reference: patent US20140093884A1, “Process for Identifying Novel Anti-Inflammatory Molecules with Reduced Direct Transrepression of Genes Induced by Glucocorticoids” (UNIVERSITE DE STRASBOURG, priority 2011, published 2014)
# How the values were obtained:
# [1] = tested on: Cox2 gene (NFκB and AP1 binding sites); assay: Q-RT-PCR of Cox2 in epidermis of WT and GRdim mice topically treated 6 hours (TPA-activated); conditions: mouse, in vivo
# Experimental: (§1) Gene transcripts in epidermis of WT and GRdim mutant mice topically treated as indicated for 6 hours are analysed by Q-RT-PCR.
# (§2) Note that epidermis was treated as indicated with TPA, to activate NFκB and AP1 factors.
# [2] = tested on: IR nGRE (pGL3(VDRE) IR1 nGRE luciferase reporter); assay: Luciferase reporter assay in A549 cells, pGL3(VDRE) IR nGRE plasmids; type: cell-based, human; conditions: pGL3(VDRE) IR1 nGRE
# Experimental: Luciferase reporter assay. A549 cells seeded on 24-well tissue culture plates overnight at 70% confluency were transfected with 100 ng pCMV β galactosidase, 200 ng pGL3 reporter plasmids and wherever indicated, with 600 ng pSG5 hVDR plasmid (Green et al., 1988) into each well and maintained in medium containing charcoal treated FCS. 24 hours post-transfection, medium was changed and different compounds were added to it for 6 hours. […] Luciferase assay was carried out as instructed (Promega). Normalized values are reported as the mean±SEM; each value originates from at least three individual transfections with assays performed in duplicate.
# To investigate whether additional DNA elements could be required to generate a repressing activity, the TSLP IR1 nGRE was inserted upstream of an enhancerless SV40 early promoter located 5′ to the luciferase coding sequence of pGL3 vector, A VDRE separated from the IR1 nGRE by a 314 bp-long DNA segment devoid of any known transregulator binding site (not shown) was inserted to generate a luciferase-expressing reporter plasmid (pGL3(VDRE) IR1 nGRE, FIG. 4), which was transfected into A549 cells, followed by addition of VitD3 and/or FA.
# To investigate whether the 1 bp spacer between the inverted repeated motifs of TSLP IR1 nGRE was critical for its repressing function, pGL3-based luciferase plasmids containing the VDRE and TSLP nGRE motifs spaced by 0 to 5 bases (IR0 to IR5 nGREs) were transfected into A549 cells.
# [3] = tested on: IR nGRE genes CCND1, PRKCB, FSTL1; conditions: mouse, in vivo
# Experimental: as §1, §2
# [4] = tested on: GPX3 (glutathione peroxidase 3) gene, (+)GRE; assay: GPX3 transcript levels in mouse ear epidermis after topical treatment (Q-RT-PCR); type: in vivo; conditions: WT mice, ears, topical, FIG. 10
# Source text: (§3) Mice. […] Real time PCR. Total RNA was reverse transcribed using hexamers, followed by Q-PCR, as reported (Li et al., 2005). The GC agonist fluocinolone acetonide (FA) was applied to ears of mice concomitantly treated with the “low-calcemic” Vitamin D3 (VitD3) analog MC903 (Calcipotriol; hereafter called MC) to trigger TSLP expression (Li et al., 2006). […] As expected, the expression of the GC-inducible GPX3 (glutathione peroxidase 3) gene which harbours a (+)GRE (Tuckermann et al., 1999) was enhanced by FA (FIG. 10) and inhibited by RU co-treatment, while FA or RU had no effect on MC-dependent expression of the CYP24A1 gene (a VitD3 target) (FIG. 10).
# TSLP = TSLP transcript levels in mouse ear epidermis after topical treatment (Q-RT-PCR); type: in vivo; conditions: WT mice, ears, topical
# Source text: Mice. […] Real time PCR. Total RNA was reverse transcribed using hexamers, followed by Q-PCR, as reported (Li et al., 2005). The GC agonist fluocinolone acetonide (FA) was applied to ears of mice concomitantly treated with the “low-calcemic” Vitamin D3 (VitD3) analog MC903 (Calcipotriol; hereafter called MC) to trigger TSLP expression (Li et al., 2006). […] As expected, the expression of the GC-inducible GPX3 (glutathione peroxidase 3) gene which harbours a (+)GRE (Tuckermann et al., 1999) was enhanced by FA (FIG. 10) and inhibited by RU co-treatment, while FA or RU had no effect on MC-dependent expression of the CYP24A1 gene (a VitD3 target) (FIG. 10). […] Although the basal TSLP level was similar in vehicle-treated WT and GR^ep−/− mice, FA blocked MC-induced TSLP expression in WT, but not in GR^ep−/− mice (not shown).
# [5] = tested on: CYP24A1 gene (a VitD3 target); assay: CYP24A1 transcript levels in mouse ear epidermis after topical treatment (Q-RT-PCR); type: in vivo; conditions: mouse ears, FIG. 10
# Source text: as §3
# [6] = tested on: IR0 and IR2 nGRE containing genes; assay: Dex with RU co-administration, expression of IR0 and IR2 genes in epidermis, intestinal epithelium and liver; type: in vivo, mouse; conditions: Dex-treated mice, in all cases
# Experimental: Mice. For topical treatment, 1 nmole (nm)/cm^2 MC903, at-RA or TPA; 6 nm/cm^2 FA, Dex or RU24858; and 90 nm/cm^2 RU486 were used. For systemic use, 100 ng/kg body weight active Vit D3, 8 mg/kg Dex and 64 mg/kg RU486 was intraperitoneally injected. GRdim mice were from the European Mouse Mutant Archives (EM:02123). Breeding, maintenance and experimental manipulation of mice were approved by the Animal Care and Use Committee of the IGBMC.
# [7] = tested on: IR0, IR1 and IR2 nGRE-containing genes; assay: Q-RT-PCR of IR nGRE-containing genes in WT mouse epidermis or liver after Dexamethasone or RU24858 for 18 hours; conditions: in vivo, FIG. 15B, compared with Dex
# Experimental: (§4) A549 cells transfected with PGL4-NFκB (NFκBluc plasmid) of SEQ ID NO:56 and PGL4-AP1 (AP1luc plasmid) of SEQ ID NO:55 were treated as indicated for 6 hours, followed by luciferase assay. “BAY”=NFκB-specific inhibitor BAY 11-7082 and “JNK inhibit”=JNK inhibitor II). • B) Q-RT-PCR of gene transcripts from WT dorsal epidermis topically-treated with Dexamethasone or RU24858 for 18 hours (left panel) and from liver of WT mice IP-injected with Dexamethasone or RU24858 for 18 hours (right panel).
# (§5) Real time PCR. Total RNA was reverse transcribed using hexamers, followed by Q-PCR, as reported (Li et al., 2005).
# (§6) The “activity profile” of RU24858 was also investigated in vivo.
# [8] = tested on: (+)GRE (PGL3(VDRE) (+)GRE luciferase reporter); assay: Luciferase reporter assay in A549 cells, PGL3(VDRE) (+)GRE vector; type: cell-based, human; conditions: compared with Dex
# Experimental: (§7) Luciferase reporter assay. A549 cells seeded on 24-well tissue culture plates overnight at 70% confluency were transfected with 100 ng pCMV β galactosidase, 200 ng pGL3 reporter plasmids and wherever indicated, with 600 ng pSG5 hVDR plasmid (Green et al., 1988) into each well and maintained in medium containing charcoal treated FCS. 24 hours post-transfection, medium was changed and different compounds were added to it for 6 hours. Final concentrations of the compounds are: FA, 500 nM; Dex or RU24858, 300 nM or 500 nM (wherever 300 nM Dex or RU was used, it is indicated in the figure, in all other cases, 500 nM concentration was used); active vitamin D3, 1 μM; IL-1β, 5 ng/ml; BAY 11-7082, 5 μM, JNK inhibitor II, 25 μM. Luciferase assay was carried out as instructed (Promega). Normalized values are reported as the mean±SEM; each value originates from at least three individual transfections with assays performed in duplicate. […]
# [9] = tested on: AP1-driven transcription (PGL4-AP1 vector); assay: Luciferase assay in IL-1β-activated A549 cells transfected with PGL4-AP1; type: cell-based, human; conditions: 6 hours, FIG. 15A right panel
# Experimental: as §4
# as §7, with “(Promega).” for “(Promega). Normalized values are reported as the mean±SEM; each value originates from at least three individual transfections with assays performed in duplicate.”
# [10] = tested on: (+)GRE-containing GGT1 and ERP27 genes; assay: GGT1 and ERP27 expression in mouse liver after RU24858; type: in vivo
# Source text: as §5, §6
# [11] = tested on: genes of which the skin expression was enhanced by topical TPA treatment; assay: Down-regulation of TPA-enhanced genes in mouse skin (NFκB-mediated tethered transrepression); type: in vivo; conditions: compared with Dex
# Source text: as §6
# [12] = biological target: T1, repressing complex tethered to NFκB (Homo sapiens, UniProt P04150); assay: ChIP of repressing complex tethered to NFκB on PGL4-NFκB vector in A549 cells; type: cell-based
# T1 construct: GR-expressing cells are in vitro cultured cells, preferably human lung epithelial carcinoma cells A549; endogenous in cells; host or cells: A549 (CCL-185, ATCC)
# T1 sequence (P04150 1-777): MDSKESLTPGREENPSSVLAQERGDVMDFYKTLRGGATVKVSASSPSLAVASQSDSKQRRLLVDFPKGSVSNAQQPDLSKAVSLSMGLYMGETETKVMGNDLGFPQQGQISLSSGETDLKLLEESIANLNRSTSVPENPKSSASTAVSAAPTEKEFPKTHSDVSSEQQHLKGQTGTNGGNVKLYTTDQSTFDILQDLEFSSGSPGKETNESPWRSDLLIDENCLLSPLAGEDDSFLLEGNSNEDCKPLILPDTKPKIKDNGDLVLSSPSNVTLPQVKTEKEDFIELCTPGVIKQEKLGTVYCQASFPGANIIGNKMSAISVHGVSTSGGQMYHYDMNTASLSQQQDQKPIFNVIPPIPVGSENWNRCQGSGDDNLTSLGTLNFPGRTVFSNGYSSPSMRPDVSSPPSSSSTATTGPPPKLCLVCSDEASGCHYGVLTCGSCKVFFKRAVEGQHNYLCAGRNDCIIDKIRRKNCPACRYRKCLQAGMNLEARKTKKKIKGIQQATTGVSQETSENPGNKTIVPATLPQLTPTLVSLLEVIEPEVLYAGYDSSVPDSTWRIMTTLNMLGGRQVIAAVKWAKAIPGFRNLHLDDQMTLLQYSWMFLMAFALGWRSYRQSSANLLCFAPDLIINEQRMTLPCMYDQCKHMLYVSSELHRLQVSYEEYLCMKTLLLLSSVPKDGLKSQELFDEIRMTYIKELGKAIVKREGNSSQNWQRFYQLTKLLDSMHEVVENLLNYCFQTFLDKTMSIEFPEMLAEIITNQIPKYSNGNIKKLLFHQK
# Experimental: For ChIP assays to test GR and cofactor binding to the nGRE, +GRE or NFκB region of various luciferase reporter plasmids, ˜60% confluent A549 cells in 100 mm TC dish were transfected with 2 μg of respective plasmids using fugene 6 reagent (Roche) and maintained in charcoal treated FCS containing medium. 44 hours post-transfection, 500 nM FA or Dex or RU24858 and/or 5 μM RU486, 5 ng/ml IL-1β (final conc.) was added to the medium for 2 hours, followed by formaldehyde treatment and processing as described above.
# [13] = tested on: NFκB-driven transcription (PGL4-NFκB vector); assay: Luciferase assay in IL-1β-activated A549 cells transfected with PGL4-NFκB; type: cell-based, human; conditions: 6 hours, FIG. 15A left panel
# Experimental: as §4
# as §7, with “(Promega).” for “(Promega). Normalized values are reported as the mean±SEM; each value originates from at least three individual transfections with assays performed in duplicate.”
# [14] = tested on: (+)GRE-containing GPX3 gene; assay: GPX3 expression in mouse epidermis after topical RU24858; type: in vivo
# Source text: as §5, §6
# GR [15] = biological target: T2, GR (Homo sapiens, UniProt P04150); conditions: cited from earlier work
# T2 sequence (P04150 1-777): T1 sequence (P04150 1-777)
# [16] = biological target: T3, GR complexes on (+)GRE and nGRE regions (Mus musculus, UniProt P06537); assay: ChIP in vivo after RU24858 treatment
# T3 construct: from tissue; host or cells: mouse epidermis, pancreas, liver
# Source text: as §6
# GR [17] = biological target: T2, GR; conditions: cited from earlier work; remark: listed apart in the source
smiles,measurement,setting,value
"CC#C[C@]1(O)CC[C@H]2[C@@H]3CCC4=CC(=O)CCC4=C3[C@@H](c3ccc(N(C)C)cc3)C[C@@]21C [RU486, mifepristone]",effect of RU on NFκB/AP1-mediated tethered transrepression,[1],little effect
same,FA-induced decrease of luciferase expression (IR1 nGRE) upon RU addition,[2],prevented
same,effect of Dex treatment on IR nGRE-mediated transrepression upon excess RU co-treatment,[3],reverted
same,FA-enhanced GPX3 expression upon RU co-treatment,[4],inhibited
same,FA block of MC-induced TSLP RNA upon RU co-treatment,TSLP,restored
same,FA-induced inhibition of basal TSLP RNA level upon co-application of RU486,TSLP,relieved
same,effect on MC-dependent expression of the CYP24A1 gene,[5],no effect
same,GC-induced repression of IR0 and IR2 genes upon co-administration of RU,[6],relieved
C[C@@H]1C[C@H]2[C@@H]3CCC4=CC(=O)C=C[C@]4(C)[C@@]3(F)[C@@H](O)C[C@]2(C)[C@H]1C(=O)CC#N [RU24858],transrepression of IR0 nGRE gene CCND1,[7],as efficient as Dex
same,transrepression of IR1 nGRE gene CYP26A1,[7],as efficient as Dex
same,transrepression of IR1 nGRE gene K14,[7],as efficient as Dex
same,transrepression of IR1 nGRE gene PRKCB,[7],as efficient as Dex
same,transrepression of IR1 nGRE gene TSLP,[7],as efficient as Dex
same,transrepression of IR2 nGRE gene DPAGT1,[7],as efficient as Dex
same,inducing transactivation of (+)GRE pGL3 luciferase plasmid,[8],much less efficient than Dex
same,repression of IL1β-induced activation of transcription by AP1,[9],almost as efficient as Dex
same,GC-dependent expression of the ERP27 gene,[10],did not activate
same,GC-dependent expression of the GGT1 gene,[10],did not activate
same,"down-regulating, through NFκB-mediated tethered transrepression, genes enhanced by topical TPA",[11],as efficient as Dex
same,recruiting a repressing complex tethered to NFκB bound to its cognate element,[12],as efficient as Dex
same,repression of IL1β-induced activation of transcription by NFκB,[13],almost as efficient as Dex
same,GC-dependent expression of the (+)GRE-containing GPX3 gene,[14],did not activate
same,dissociation upon administration in vivo,GR [15],failed to confirm this dissociation
same,GR-SMRT/NCoR repressing complexes on nGRE regions,[16],recruitment of GR-SMRT/NCoR repressing complexes
same,"assembly of an activating complex on (+)GRE of GPX3, GGT1 and ERP27",[16],did not induce assembly of an activating complex
same,dissociated profile (tethered indirect transrepression vs direct transactivation) in vitro,GR [17],exhibit the expected dissociated profile in vitro
